How the values were obtained:
[1] = Photophysical properties (absorption, emission, fluorescence) in solution or dispersion; type: physicochemical; settings: for Φ / εmax / λmax^abs / λmax^em / quantum yield for fluorescence: in ethanol; for quantum yield for fluorescence: orange emission; for Φf (fluorescence quantum yield): relative to quinine in 0.5 M H2SO4
[2] = Two-photon absorption cross section; type: physicochemical; settings: for two-photon absorption cross section: at 720 nm; for λmax^TPA / σ2^max: table titled in ethanol
[3] = Quantum yield for singlet oxygen generation; type: physicochemical; settings: in toluene
[4] = spectral range of interest; Drobizhev et al.; cited from earlier work

CCN(CCO)c1ccc(/C=C/c2ccc(C#Cc3ccc4c(c3)C(CCOCCOCCOC)(CCOCCOCCOC)c3cc(C#Cc5ccc(/C=C/c6ccc(N(CC)CCO)cc6)s5)ccc3-4)s2)cc1 [Photosensitizer 6b]
Φ [1]: 0.33 | εmax [1]: 0.98 10^5 M^−1cm^−1 | λmax^abs [1]: 434 nm | λmax^em [1]: 575 nm | quantum yield for fluorescence [1]: 65% | two-photon absorption cross section [2]: 1530 GM | λmax^TPA [2]: 730 nm | σ2^max [2]: 1530 GM | quantum yield for singulet oxygen generation [3]: 22%

C1=Cc2nc1c(-c1ccccc1)c1ccc([nH]1)c(-c1ccccc1)c1nc(c(-c3ccccc3)c3ccc([nH]3)c2-c2ccccc2)C=C1 [tetraphenylporphine]
two-photon absorption (TPA) cross-section [4]: 15 GM

CCCCC1(CCCC)c2cc(C#Cc3ccc(/C=C/c4ccc(N(CC)CCO)cc4)s3)ccc2-c2ccc(C#Cc3ccc(/C=C/c4ccc(N(CC)CCO)cc4)s3)cc21 [Photosensitizer 6a]
Stokes shift ([1]; AcOEt): 4605 cm⁻¹ | knr (non-radiative decay rate) ([1]; AcOEt): 0.34 10^9 s^−1 | kr (radiative decay rate) ([1]; AcOEt): 0.36 10^9 s^−1 | r (fluorescence anisotropy) ([1]; AcOEt): 0.12 | λabs ([1]; AcOEt): 435 nm | λem ([1]; AcOEt): 544 nm | τ ([1]; AcOEt): 1.42 ns | τo (radiative lifetime) ([1]; AcOEt): 2.77 ns | Φf (fluorescence quantum yield) ([1]; AcOEt): 0.51 | Stokes shift ([1]; Acetone): 5950 cm⁻¹ | knr (non-radiative decay rate) ([1]; Acetone): 0.89 10^9 s^−1 | kr (radiative decay rate) ([1]; Acetone): 0.25 10^9 s^−1 | r (fluorescence anisotropy) ([1]; Acetone): 0.13 | λabs ([1]; Acetone): 437.5 nm | λem ([1]; Acetone): 591.5 nm | τ ([1]; Acetone): 0.88 ns | τo (radiative lifetime) ([1]; Acetone): 4.02 ns | Φf (fluorescence quantum yield) ([1]; Acetone): 0.22 | Stokes shift ([1]; Bu2O): 2700 cm⁻¹ | knr (non-radiative decay rate) ([1]; Bu2O): 0.45 10^9 s^−1 | kr (radiative decay rate) ([1]; Bu2O): 0.56 10^9 s^−1 | r (fluorescence anisotropy) ([1]; Bu2O): 0.19 | λabs ([1]; Bu2O): 433.5 nm | λem ([1]; Bu2O): 491 nm | τ ([1]; Bu2O): 0.99 ns | τo (radiative lifetime) ([1]; Bu2O): 1.79 ns | Φf (fluorescence quantum yield) ([1]; Bu2O): 0.55 | Stokes shift ([1]; CH3CN): 6355 cm⁻¹ | knr (non-radiative decay rate) ([1]; CH3CN): 0.92 10^9 s^−1 | kr (radiative decay rate) ([1]; CH3CN): 0.05 10^9 s^−1 | r (fluorescence anisotropy) ([1]; CH3CN): 0.21 | λabs ([1]; CH3CN): 436.5 nm | λem ([1]; CH3CN): 604 nm | τ ([1]; CH3CN): 1.03 ns | τo (radiative lifetime) ([1]; CH3CN): 19.99 ns | Φf (fluorescence quantum yield) ([1]; CH3CN): 0.052 | Stokes shift ([1]; CHCl3): 4035 cm⁻¹ | knr (non-radiative decay rate) ([1]; CHCl3): 0.43 10^9 s^−1 | kr (radiative decay rate) ([1]; CHCl3): 0.39 10^9 s^−1 | r (fluorescence anisotropy) ([1]; CHCl3): 0.15 | λabs ([1]; CHCl3): 431.5 nm | λem ([1]; CHCl3): 522.5 nm | τ ([1]; CHCl3): 1.22 ns | τo (radiative lifetime) ([1]; CHCl3): 2.54 ns | Φf (fluorescence quantum yield) ([1]; CHCl3): 0.48 | Stokes shift ([1]; DCM): 4870 cm⁻¹ | knr (non-radiative decay rate) ([1]; DCM): 0.27 10^9 s^−1 | kr (radiative decay rate) ([1]; DCM): 0.42 10^9 s^−1 | r (fluorescence anisotropy) ([1]; DCM): 0.10 | λabs ([1]; DCM): 433.5 nm | λem ([1]; DCM): 549.5 nm | τ ([1]; DCM): 1.43 ns | τo (radiative lifetime) ([1]; DCM): 2.35 ns | Φf (fluorescence quantum yield) ([1]; DCM): 0.61 | Stokes shift ([1]; DMSO): 6090 cm⁻¹ | knr (non-radiative decay rate) ([1]; DMSO): 1.94 10^9 s^−1 | kr (radiative decay rate) ([1]; DMSO): 0.10 10^9 s^−1 | r (fluorescence anisotropy) ([1]; DMSO): 0.28 | λabs ([1]; DMSO): 448.5 nm | λem ([1]; DMSO): 617 nm | τ ([1]; DMSO): 0.49 ns | τo (radiative lifetime) ([1]; DMSO): 9.7 ns | Φf (fluorescence quantum yield) ([1]; DMSO): 0.051 | Stokes shift ([1]; THF): 4865 cm⁻¹ | knr (non-radiative decay rate) ([1]; THF): 0.32 10^9 s^−1 | kr (radiative decay rate) ([1]; THF): 0.34 10^9 s^−1 | r (fluorescence anisotropy) ([1]; THF): 0.12 | λabs ([1]; THF): 437 nm | λem ([1]; THF): 555 nm | τ ([1]; THF): 1.51 ns | τo (radiative lifetime) ([1]; THF): 2.93 ns | Φf (fluorescence quantum yield) ([1]; THF): 0.51 | Stokes shift ([1]; Toluene): 2650 cm⁻¹ | knr (non-radiative decay rate) ([1]; Toluene): 0.56 10^9 s^−1 | kr (radiative decay rate) ([1]; Toluene): 0.52 10^9 s^−1 | r (fluorescence anisotropy) ([1]; Toluene): 0.16 | λabs ([1]; Toluene): 436 nm | λem ([1]; Toluene): 493 nm | τ ([1]; Toluene): 0.93 ns | τo (radiative lifetime) ([1]; Toluene): 1.94 ns | Φf (fluorescence quantum yield) ([1]; Toluene): 0.48 | Φ [1]: 0.65 | εmax [1]: 1.04 10^5 M^−1cm^−1 | λmax^abs [1]: 432 nm | λmax^em [1]: 561 nm | quantum yield for fluorescence [1]: 65% | two-photon absorption cross section [2]: 1340 GM | λmax^TPA [2]: 730 nm | σ2^max [2]: 1204 GM | quantum yield for singulet oxygen generation [3]: 22%

Source: patent publication US8709747B2, “Biphotonic photosensitizers, nanoparticles containing the same and their use as drugs” (Centre National de la Recherche Scientifique, priority 2009, dated 2014)
